Results on 23 molecules are retold here after ChEMBL document CHEMBL4257475, “Identification of non-substrate-like glycosyltransferase inhibitors from library screening: pitfalls & hits” (Medchemcomm, 2018).

Active and inactive are the calls of the source. The calls are words filed in the database; no cut-off is given here.

Assay [1] deals with T1, LgtC (Neisseria meningitidis) (UniProt Q93EK7).
T1 sequence (whole entry): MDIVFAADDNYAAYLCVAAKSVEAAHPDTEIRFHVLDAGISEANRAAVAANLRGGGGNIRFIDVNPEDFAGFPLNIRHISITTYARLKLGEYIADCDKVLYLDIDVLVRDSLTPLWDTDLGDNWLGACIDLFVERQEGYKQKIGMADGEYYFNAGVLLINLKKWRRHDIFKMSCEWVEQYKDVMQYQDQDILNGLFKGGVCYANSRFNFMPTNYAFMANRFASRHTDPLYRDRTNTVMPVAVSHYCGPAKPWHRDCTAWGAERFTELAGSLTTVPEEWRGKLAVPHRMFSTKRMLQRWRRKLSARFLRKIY
As to the kind of experiment: Inhibition of Neisseria meningitidis LgtC at 50 uM using UDP-Gal donor substrate incubated for 20 mins by malachite green reagent based colorimetric method relative to control.

Assay [2] addresses T2, LgtC (Neisseria meningitidis, UniProt Q93EK7).
T2 sequence (Q93EK7 whole entry): T1 sequence (whole entry)
As to the kind of experiment: (§1) Inhibition of Neisseria meningitidis LgtC using UDP-Gal donor substrate incubated for 20 mins by malachite green reagent based colorimetric method.

For assay [3], the target named is T1, LgtC (Neisseria meningitidis). Described as §1.
Assay [4] deals with Intestinal-type alkaline phosphatase (Bos taurus) (UniProt P19111). As to the kind of experiment: Inhibition of calf intestinal phosphatase up to 100 uM using UDP as substrate measured after 20 mins by malachite green reagent based colorimetric method.
Chain of Intestinal-type alkaline phosphatase (Bos taurus) (P19111 20-506 limits assumed): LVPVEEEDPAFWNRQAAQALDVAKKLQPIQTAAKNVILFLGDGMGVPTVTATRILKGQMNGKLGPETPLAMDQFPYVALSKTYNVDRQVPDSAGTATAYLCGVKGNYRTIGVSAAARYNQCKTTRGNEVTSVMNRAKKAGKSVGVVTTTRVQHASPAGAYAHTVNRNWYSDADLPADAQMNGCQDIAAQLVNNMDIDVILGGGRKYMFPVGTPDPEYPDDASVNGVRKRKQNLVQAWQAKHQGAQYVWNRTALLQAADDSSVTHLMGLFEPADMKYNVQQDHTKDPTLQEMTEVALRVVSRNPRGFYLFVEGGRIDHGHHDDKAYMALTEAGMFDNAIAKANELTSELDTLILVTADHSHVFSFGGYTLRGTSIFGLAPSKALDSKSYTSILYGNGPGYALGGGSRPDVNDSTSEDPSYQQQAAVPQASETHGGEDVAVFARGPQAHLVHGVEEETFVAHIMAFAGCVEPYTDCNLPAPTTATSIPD
The nature of assay [5]: Effect on inorganic phosphate reaction with malachite green reagent up to 100 uM after 20 mins by colorimetric method. Format: functional.
Assay [6] concerns Pasteurella multocida. The experiment in a line: Inhibition of recombinant Pasteurella multocida alpha-(2,3)-sialyltransferase expressed in Escherichia coli BL21 up to 100 uM using CMP-Neu5Ac donor substrate incubated for 20 mins by malachite reagent based colorimetric method.
In assay [7] the target is T3, Galactoside alpha-(1,2)-fucosyltransferase 2 (Homo sapiens) (UniProt Q10981).
T3 sequence (whole entry): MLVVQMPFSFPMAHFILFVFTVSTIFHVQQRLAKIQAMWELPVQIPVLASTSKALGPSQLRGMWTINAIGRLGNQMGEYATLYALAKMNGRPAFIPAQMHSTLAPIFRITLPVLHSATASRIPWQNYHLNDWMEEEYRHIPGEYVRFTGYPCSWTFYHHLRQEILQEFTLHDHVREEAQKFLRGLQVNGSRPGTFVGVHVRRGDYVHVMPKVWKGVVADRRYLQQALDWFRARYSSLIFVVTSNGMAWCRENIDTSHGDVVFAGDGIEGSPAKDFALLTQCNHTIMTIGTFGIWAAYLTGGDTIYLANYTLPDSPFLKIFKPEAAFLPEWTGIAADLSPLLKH
As to the kind of experiment: Inhibition of recombinant human C-terminal His6-tagged FUT2 (Ile35 to His343 residues) expressed in HEK293 cells at 100 uM using GDP-Fuc donor substrate measured after 20 mins by malachite green reagent based colorimetric method. Type of assay: cell-based.

Assay [8] concerns the target T1, LgtC (Neisseria meningitidis). The experiment in a line: Inhibition of Neisseria meningitidis LgtC at 100 uM using UDP-Gal donor substrate incubated for 20 mins by malachite green reagent based colorimetric method relative to control.
Assay [9] has the same target. The experiment in a line: Inhibition of Neisseria meningitidis LgtC at 100 uM using UDP-Gal donor substrate incubated for 20 mins followed by 5 fold dilution by malachite green reagent based colorimetric method relative to control.
Assay [10] is described as follows: Effect on inorganic phosphate reaction with malachite green reagent at 1 mM after 20 mins by colorimetric method. Type of assay: functional.

`CCOC(=O)c1cccc(N2N=C(C)/C(=C/c3ccncc3)C2=O)c1`: the inhibition entry in assay [1] is “inactive”.
On the same count and under the same terms, the result for `CC1=NN(c2ccccc2)C(=O)/C1=C\c1cccnc1` reads “inactive”; that for `CC1=NN(c2ccccc2)C(=O)/C1=C\c1ccc(Cl)cc1`, “inactive”.
On the same count and under the same terms, in the case of `CCOC(=O)c1cccc(N2N=C(C)/C(=C/C3CCN(C(=O)OC(C)(C)C)CC3)C2=O)c1` it was “inactive”.
As to `CC1=NN(c2ccccc2)C(=O)/C1=C\c1ccc(S(C)(=O)=O)cc1`, in assay [1], the inhibition result is “inactive”.
On the same count and under the same terms, the result for `CC1=NN(c2ccccc2)C(=O)/C1=C\c1ccco1` reads “inactive”.
Same read-out and setting: the result for `CC1=NN(c2ccccc2)C(=O)/C1=C\c1ccncc1` reads “inactive”.
`CC1=NN(c2ccccc2)C(=O)/C1=C\c1ccccc1Cl`: the inhibition in [1] was above 10%. Further, the IC50 in assay [2] amounted to 33 µM.
As for `CC1=NN(c2ccccc2)C(=O)/C1=C\c1ccccc1C`, the inhibition in [1] was above 10%; in assay [3] it was “Dose-dependent effect”. Further, the IC50 in [2] is 30 µM. The inhibition result in assay [4] and in assay [6] was “inactive” each time. Further, the outcome in assay [5] was inactive. The inhibition result in [7] was “Active”.
With `CC1=NN(c2ccccc2)C(=O)/C1=C\c1ccccc1C(F)(F)F`, the inhibition in assay [8] and in assay [9] was 60% throughout.
Consider `CC(=O)O[C@H]1C[C@@H]2CC[C@@H]3[C@H](CC[C@@]4(C)[C@H]3C[C@H]([N+]3(C)CCCCC3)[C@@H]4OC(C)=O)[C@@]2(C)C[C@@H]1[N+]1(C)CCCCC1`, for which the inhibition in [1] is 38%; in [3], “Dose-dependent effect”. Further, the inhibition entry in assay [4] was “Active”. Moreover, in assay [10], the outcome was Active.
On to `CC1=NN(c2ccccc2)C(=O)/C1=C\c1cccc(O)c1`, for which the inhibition entry in assay [1] is “inactive”.
`CC1=NN(c2ccccc2)C(=O)/C1=C\c1ccc(C)cc1`: the inhibition result in assay [1] is “inactive”.
On the same count and under the same terms, in the case of `CC1=NN(c2ccccc2)C(=O)/C1=C\c1ccc(C#N)cc1` it was “inactive”.
Regarding `CC1=NN(c2ccccc2)C(=O)/C1=C\c1cccc(OCc2ccccc2)c1`, the inhibition result in [1] is “inactive”.
Turning to `CC1=NN(c2ccccc2)C(=O)/C1=C\c1ccc(O)cc1`, in assay [1], the inhibition entry is “inactive”.
As to `CC1=NN(c2ccccc2)C(=O)/C1=C\c1ccccc1O`, the inhibition in assay [1] worked out at 10%.
In the case of `COc1ccc2occ(/C=C3\C(=O)N(c4cccc(C(=O)O)c4)N=C3C)c(=O)c2c1`, the inhibition entry in assay [1] was “inactive”.
The same measure, in the same setting: in the case of `CC1=NN(c2ccccc2)C(=O)/C1=C\c1cccc(C)c1` it was “inactive”; in that of `CC1=NN(c2ccccc2)C(=O)/C1=C\c1cccc([N+](=O)[O-])c1`, “inactive”.
`CC(=O)O[C@H]1C[C@@H]2CC[C@@H]3[C@H](CC[C@@]4(C)[C@H]3C[C@H]([N+]3(C)CCCCC3)[C@@H]4OC(C)=O)[C@@]2(C)C[C@@H]1N1CCCCC1`: the inhibition was 34% in assay [1] and “Dose-dependent effect” in assay [3]. Moreover, the inhibition result in [4] was “Active”. Also, the outcome in [10] was Active.
For the molecule `CC1=NN(c2ccccc2)C(=O)/C1=C\c1cc(C(F)(F)F)ccc1C(F)(F)F`, in assay [1], the inhibition entry was “inactive”.
Still for that read-out and setting: in the case of `COc1cc(/C=C2\C(=O)N(c3cccc(C(=O)O)c3)N=C2C)cc(OC)c1O` it was “inactive”.
